From PMC12655733, “Design, Synthesis and Evaluation of the First 2-Alkynyl(aza)indole ^18F Probe Targeting α-Synuclein Aggregates” (Pharmaceuticals, 2025)
Where two headings read alike, the source gives them in different places.

Columns and labels:
[1] = biological target: T1, Tau fibrils (isoform h2N4RTau) (Homo sapiens, UniProt P10636); experiment: Inhibition of thioflavin T binding to Tau fibrils (fluorescence competition), Ki determination; details: calculated from IC50, competition with ThT 500 nM, fibrils 200 nM, mean ± SD of 3 experiments
T1 construct: made in house; host or cells: Escherichia coli BL21(DE3), pET11d vector
T1 sequence (P10636 1-441 isoform P10636-8): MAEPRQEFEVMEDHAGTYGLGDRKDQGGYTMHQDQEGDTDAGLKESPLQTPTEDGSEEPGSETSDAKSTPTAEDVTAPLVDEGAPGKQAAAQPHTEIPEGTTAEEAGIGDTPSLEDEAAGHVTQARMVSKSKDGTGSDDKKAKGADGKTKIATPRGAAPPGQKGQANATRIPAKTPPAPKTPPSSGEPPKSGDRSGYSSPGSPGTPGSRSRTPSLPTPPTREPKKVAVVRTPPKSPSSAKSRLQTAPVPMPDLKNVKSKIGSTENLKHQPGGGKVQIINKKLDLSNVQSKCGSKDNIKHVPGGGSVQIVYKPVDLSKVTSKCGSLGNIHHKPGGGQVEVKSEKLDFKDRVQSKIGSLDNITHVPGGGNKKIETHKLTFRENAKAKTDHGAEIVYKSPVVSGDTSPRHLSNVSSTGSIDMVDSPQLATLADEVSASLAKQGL
Protocol: (§1) Wild-type α-syn and Aβ1-42 were expressed in the Escherichia coli strain BL21(DE3) (Stratagene, La Jolla, CA, USA) and purified as described. […] For the Aβ1-42 peptide, the concentration was determined by a fluorometric method using the reactive compound fluorescamine (Sigma, San Jose, CA, USA) that reacts with primary amino groups to form a fluorescent product. The human Tau protein (isoform h2N4RTau) was expressed in the pET11d vector in the Escherichia coli strain BL21(DE3) (Stratagene, La Jolla, CA, USA) and purified as described.
(§2) For assembly into fibrils, α-syn was incubated in 50 mM Tris-HCl, pH 7.5, 150 mM KCl at 37 °C under continuous shaking for 4 days. Lyophilized Aβ1-42 was dissolved in 1,1,1,3,3,3-hexafluoro-2-propanol (HFIP) at a concentration of 0.2 mg/mL and incubated for 24 h at 37 °C to achieve complete solubilization. HFIP was evaporated under a nitrogen stream to obtain a dry film. To start assembly into fibrils, the dry peptide was resuspended in PBS pH 7.4, 10% (v/v) DMSO and incubated at 37 °C without shaking for 3 days. The Tau protein was assembled in fibrils in a PBS buffer containing 1 mM of DTT in the presence of 1/12 heparin (v/v) at 37 °C under shaking. […] Protein fibrils were systematically examined by transmission electron microscopy (TEM) in a Jeol 1400 transmission electron microscope following adsorption onto carbon-coated 200 mesh grids and negative staining with 1% uranyl acetate. The images were recorded with a Gatan Orius CCD camera (Gatan, Pleasanton, CA, USA). Finally, the percentage of α-syn or Aβ1-42 aggregated into fibrils was assessed by pelleting fibrils at 40,000× g for 20 min and by determining the concentration of soluble protein/peptide remaining in the supernatant.
(§3) The samples were incubated for 1 h at room temperature to achieve complete equilibration.

Aβ1-42 fibrils [2] = biological target: T2, Aβ1-42 fibrils (Homo sapiens, UniProt P05067); experiment: Inhibition of thioflavin T binding to Aβ1-42 fibrils (fluorescence competition), Ki determination; details: calculated from IC50, competition with ThT 500 nM, fibrils 500 nM, mean ± SD of 3 experiments; read-out: Ki Aβ
T2 construct: Wild-type α-syn and Aβ1-42 were expressed; made in house; host or cells: Escherichia coli BL21(DE3)
T2 sequence (P05067 672-713): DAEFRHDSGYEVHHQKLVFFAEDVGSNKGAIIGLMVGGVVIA
Protocol: as §1, §2, §3

α-syn fibrils [3] = biological target: T3, α-syn fibrils (Homo sapiens, UniProt P37840); experiment: Inhibition of thioflavin T binding to α-syn fibrils (fluorescence competition), Ki determination
T3 construct: made in house; host or cells: Escherichia coli BL21(DE3)
Protocol: as §1, §2, §3

α-syn fibrils [4] = biological target: T3, α-syn fibrils; experiment: Direct fluorescence titration on α-syn fibrils: Kd and Bmax; assay type: binding; details: direct assay on fibrils, mean ± SD of 3 experiments
From the text: (§4) In view of the interesting properties of compounds 33–39, we decided to switch to azaindole structures and to study the impact of the position of the nitrogen atom in the 6-membered ring on binding to fibrils. At this step we measured, in addition to the Ki values, the direct binding of each compound to fibrils through the fluorescence in the fraction bound to fibrils, which allowed us to determine the affinity values (Kd, Table 1). […] We therefore prepared a fluorinated derivative of compound 43, i.e., 45.
(§5) Fresh solutions of each tested compound (2.5 mM in DMSO) were diluted in PBS pH 7.4 at concentrations ranging from 0.5 nM to 5 µM in the presence or absence of α-syn, Aβ1-42, or Tau fibrils (200 nM, 500 nM, or 200 nM, respectively) in a final volume of 2 mL. After 1 h incubation at room temperature, the binding of each compound to α-syn, Aβ1-42, or Tau fibrils was assessed by fluorescence measurements using the appropriate excitation/emission wavelengths (i.e., those yielding the highest fluorescence ratio between fibril-bound and free compound). For any given concentration of compound added to the fibrils, the concentrations of compound bound to the fibrils and free in solution were determined on the basis of the measured fluorescence. Since at each point of the titration: Fm = FB × B + FF × (T − B) where Fm is the measured fluorescence of the compound in the presence of fibrils at a given compound concentration T, FB is the specific molar fluorescence of the bound compound, FF is the specific molar fluorescence of the free compound, and B is the concentration of compound bound to the fibrils at any point of the titration. FF was determined by measuring the fluorescence of known compound concentrations in the absence of fibrils. FB was determined by measuring the maximum fluorescence of known compound concentrations upon saturation with α-syn, Aβ1-42, or Tau fibrils.
(§6) Therefore, at each point of the titration, the concentration of bound compound B could be determined and was B = (Fm − FF × T)/FB − FF. The B values thus determined versus the respective concentrations of free compound were analyzed by fitting to the Michaelis-Menten equation.

Aβ1-42 fibrils [5] = biological target: T2, Aβ1-42 fibrils; experiment: Direct fluorescence titration on Aβ1-42 fibrils: Kd and Bmax; assay type: binding; details: direct assay on fibrils, mean ± SD of 3 experiments; read-out: Kd Aβ
From the text: as §4, §5, §6

[6] = biological target: T1, Tau fibrils (isoform h2N4RTau); experiment: Direct fluorescence titration on Tau fibrils: Kd and Bmax; assay type: binding; details: direct assay on fibrils, mean ± SD of 3 experiments
From the text: as §4, §5, §6

α-syn fibrils [7] = biological target: T3, α-syn fibrils; details: cited from earlier work
Aβ fibrils = details: cited from earlier work
α-syn fibrils [8] = biological target: T3, α-syn fibrils; experiment: Dynamic PET imaging and ex vivo brain radioactivity in rats with α-syn fibrils implanted in the right striatum; details: Wistar rat
From the text: The next step in the characterization of our new PET tracer was to evaluate its ability to bind in vivo to α-syn fibrils. For this aim, we performed a simple preliminary imaging experiment in which the same α-syn fibrils as those used in in vitro experiments were surgically and unilaterally implanted in the brains of two adult Wistar rats. The accumulation of [^18F]45 after intravenous (i.v.) injection was compared, in each animal, between the implanted and intact non-implanted side. The fibrils were administered by stereotaxic injection into the right striatum, [^18F]45 was i.v. injected 1 day later, and image acquisition began at the time of injection using a microPET eXplore Vista (GE Healthcare, Buc, France)/CT system during 3 h. PET images were reconstructed and analyzed in three regions of interest, i.e., the left striatum without fibrils (C-ST), the right striatum with fibrils (I-ST), and the cerebellum (CE). At the end of imaging acquisition, each rat was sacrificed, and brain regions were removed, weighed, and their radioactivity measured.
PET imaging experiments were performed with [^18F]45 on two adult male Wistar rats weighing 250–300 g (Janvier, Le Genest-Saint-Isle, France). The animals were housed in a temperature (23 °C) and humidity (43%) controlled environment under a 12-h light-dark cycle with food and water available ad libitum, and experimental procedures were conducted in accordance with the requirements of the European Community Council Directive 2010/63/EU for the care of laboratory animals and with the authorization of the Regional Ethical Committee (Authorization N°2012-03-1).
The rats were scanned one hour after receiving an intra-cerebral administration of α-syn. They were anesthetized with isoflurane (4% in O2, 500 mL/min, Baxter, France), placed on a stereotaxic frame (Stoelting, Phymep, Paris, France) and maintained under isoflurane 2.5% (500 mL/min) during surgery. Body temperature was monitored and kept at 37 °C. Fibrils of α-syn were prepared as described above (solution of 10 mg/mL in PBS). This solution was administered in two sites of the right striatum of each rat using a 25 μL Hamilton Gastight syringe (Hamilton, Massy, France) with a 30-gauge needle (Phymep, Paris, France) connected to a perfusion system. […]
For the PET experiment, each rat was anesthetized with isoflurane (Baxter, Guyancourt, France), at 4–5% in O2 for induction and then 1.5–2% during scanning, and received an i.v. bolus injection of 42–46 MBq of [^18F]45 (molar activity 99.69 GBq/µmol) into the tail vein. […] The quantification of the tracer uptake was extracted from the last 6 120-s frames corresponding to 49–61 min of acquisition after tracer injection. […] PET images were reconstructed and analyzed using PMOD (3.403, PMOD Technologies, Zurich, Switzerland). […]

tau fibrils = details: cited from earlier work
[9] = calculated from IC50, competition with ThT 500 nM, fibrils 200 nM, mean ± SD of 3 experiments

Compound	Ki [1]	Ki (Aβ1-42 fibrils [2])	Ki (α-syn fibrils [3])	other results
C(#Cc1cc2ccccc2[nH]1)c1ccccc1 [Compound 31]	0.0196 ± 0.002 µM	0.0689 ± 0.03 µM	> 0.1 µM	–
Cc1ccc(C#Cc2cc3ccccc3[nH]2)cc1 [Compound 32]	0.0131 ± 0.002 µM	0.0379 ± 0.013 µM	> 0.1 µM	–
CCc1ccc(C#Cc2cc3ccccc3[nH]2)cc1 [Compound 33]	0.0329 ± 0.008 µM	0.0033 ± 0.001 µM	0.0359 ± 0.005 µM	–
COc1ccc(C#Cc2cc3ccccc3[nH]2)cc1 [Compound 34]	0.0331 ± 0.007 µM	0.0689 ± 0.014 µM	0.0967 ± 0.014 µM	–
Nc1ccc(C#Cc2cc3ccccc3[nH]2)cc1 [Compound 35]	0.123 ± 0.028 µM	0.0262 ± 0.011 µM	0.0404 ± 0.006 µM	–
Nc1cccc(C#Cc2cc3ccccc3[nH]2)c1 [Compound 36]	0.0072 ± 0.001 µM	0.0153 ± 0.007 µM	> 0.1 µM	–
CNc1ccc(C#Cc2cc3ccccc3[nH]2)cc1 [Compound 37]	0.0172 ± 0.003 µM	0.0066 ± 0.002 µM	0.0478 ± 0.009 µM	–
CN(C)c1ccc(C#Cc2cc3ccccc3[nH]2)cc1 [Compound 38]	0.0276 ± 0.003 µM	0.0644 ± 0.04 µM	0.036 ± 0.007 µM	–
COc1ccc2[nH]c(C#Cc3ccc(N(C)C)cc3)cc2c1 [Compound 39]	0.0127 ± 0.001 µM	–	0.0217 ± 0.006 µM	–
CN(C)c1ccc(C#Cc2cc3cc(OCCF)ccc3[nH]2)cc1 [Compound 40]	0.0158 ± 0.003 µM	0.0101 ± 0.005 µM	> 0.1 µM	–
CN(C)c1ccc(C#Cc2cc3ncccc3[nH]2)cc1 [Compound 41]	0.012 ± 0.001 µM	0.0213 ± 0.007 µM	–	Kd (α-syn fibrils [4]): 0.00325 ± 0.0002 µM; Kd (Aβ1-42 fibrils [5]): 0.0029 ± 0.002 µM; Kd [6]: 0.00013 ± 5e-05 µM; Ki (α-syn fibrils [3]; [9]): 0.026 ± 0.016 µM
CN(C)c1ccc(C#Cc2cc3ccncc3[nH]2)cc1 [Compound 42]	0.0084 ± 0.001 µM	0.0915 ± 0.011 µM	–	Kd (α-syn fibrils [4]): 0.0014 ± 0.001 µM; Kd (Aβ1-42 fibrils [5]): 0.0052 ± 0.003 µM; Kd [6]: 0.00049 ± 0.0002 µM; Ki (α-syn fibrils [3]; [9]): 0.0287 ± 0.008 µM
CN(C)c1ccc(C#Cc2cc3cnccc3[nH]2)cc1 [Compound 44]	–	0.0213 ± 0.007 µM	0.026 ± 0.016 µM	Kd (α-syn fibrils [4]): 0.001 ± 0.0005 µM; Kd (Aβ1-42 fibrils [5]): 0.0036 ± 0.002 µM; Kd [6]: 0.0024 ± 0.0009 µM
CN([11CH3])c1ccc(-c2cc(-c3ccnc(Br)c3)[nH]n2)cc1 [[^11C]MODAG-001]	–	–	–	better affinity for α-syn as compared to Aβ and tau fibrils (α-syn fibrils [7]; in vitro): around 20 times
CN(c1ccc(/C=C/c2nc3ccccc3o2)cc1)S(=O)(=O)c1ccccc1[18F] [[^18F]2FBox]	–	–	–	Kd (α-syn fibrils [7]; in vitro, read-out: Kd for α-syn fibrils): 0.0033 µM; Kd (Aβ fibrils; in vitro, read-out: Kd for Aβ): 0.145 µM
CN(CC[18F])c1ccc(C#Cc2cc3cccnc3[nH]2)cc1 [[^18F]45]	–	–	–	radioactivity accumulation in the three brain regions (CE, I-ST, C-ST) at the end of imaging (α-syn fibrils [8]; ex vivo γ-counting after PET, n = 2): identical radioactivity accumulation; ability to cross the blood–brain barrier (α-syn fibrils [8]; i.v. 42–46 MBq, dynamic PET 3 h): able to cross the blood–brain barrier; brain uptake kinetics (time-activity curves) (α-syn fibrils [8]; i.v. 42–46 MBq, dynamic PET 3 h, CE, I-ST, C-ST): slow uptake and almost no washout; specificity of brain uptake / in vivo binding to implanted α-syn fibrils (α-syn fibrils [8]; α-syn fibrils in right striatum, i.v. 42–46 MBq): non-specific uptake was observed
COc1cccc2ccc(/C=N/N=C/c3ccc4cccc(OCC[18F])c4n3)nc12 [[^18F]BQ2]	–	–	–	Ki (α-syn fibrils [7]): ~0.01 µM; Ki for Aβ (Aβ fibrils; compared with Ki for α-syn): same Ki for Aβ
Cc1cc2nc(/C=C/c3ccc(O)c(Br)c3)sc2cc1N(C)CCOCC[18F] [[^18F]F0502B]	–	–	–	Kd (α-syn fibrils [7]; read-out: Kd for α-syn): ~0.01 µM; Kd (Aβ fibrils; read-out: Kd for Aβ fibrils): ~0.1 µM; Kd (tau fibrils): ~0.1 µM
[18F]c1ccc2nc(/C=C/c3ccc(N4CCOCC4)cc3)sc2c1 [[^18F]MFSB]	–	–	–	Kd (α-syn fibrils [7]; read-out: Kd for α-syn): ~0.01 µM; Kd (Aβ fibrils; read-out: Kd for Aβ fibrils): ~0.1 µM; Kd (tau fibrils): ~0.1 µM
O=C1/C(=C\C=C\c2ccc([N+](=O)[O-])cc2)c2ccccc2N1Cc1ccc(OCC[18F])cc1 [[^18F]indolone]	–	–	–	Ki (α-syn fibrils [7]; in vitro): 0.01 µM; selectivity towards Aβ fibrils (Aβ fibrils; α-syn versus Aβ): 27 fold; selectivity for α-syn over tau fibrils (tau fibrils; α-syn versus tau): 5 fold
